Common to all, as to test: Bliss excess, mean over the matrix (fraction); higher = more synergy
For assay [1], the system named is FADU (Head and Neck Carcinoma). The essentials:
(§1)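 After 24 hours at 37°C and 5% CO2 in 1536-well plates, cells in DMEM/F12 or RPMI plus 10% FBS received two-drug dose matrices for 72 hours. Viability came from CellTiter-Glo 2.0 luminescence and was scaled as inhibition, anchored at 0 by vehicle wells and at 1 by blank wells. Combination Emax is taken as the second-highest inhibition in the matrix, and Bliss excess as the observed combination effect less EA + EB − EA·EB, with EA and EB the single-agent effects.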

In assay [2] the test system is HSC-39 (Gastric Carcinoma). In outline: as §1
In assay [3] the test system is L-1236 (Hodgkin's Lymphoma). In outline:
as §1

Assay [4] concerns LXF-289 (Lung Adenocarcinoma). In outline: as §1
Assay [5] has as its system NCI-H446 (Small Cell Lung Carcinoma). The essentials:
as §1

Assay [6] relates to OPM-2 (Plasma Cell Myeloma). The essentials:
as §1

For `Cc1cc2ncnn2cc1Nc1ncc2c(n1)n(C1CCOCC1)c(=O)n2C` [AZD7648] + O=C(c1cc(Cc2n[nH]c(=O)c3ccccc23)ccc1F)N1CCN(C(=O)C2CC2)CC1 [Olaparib] (first compound max 10 µM, 7x7, partner max 10 µM), the Bliss excess is 0.0107 in assay [1]; -0.0083 in assay [2]; -0.0394 in assay [3]; -0.0504 in assay [4]; -0.0388 in assay [5]; -0.0373 in assay [6].

On to `COc1cccc2c1C(=O)c1c(O)c3c(c(O)c1C2=O)C[C@@](O)(C(=O)CO)C[C@@H]3O[C@H]1C[C@H](N)[C@H](O)[C@H](C)O1` [Doxorubicin] + Cc1cc2ncnn2cc1Nc1ncc2c(n1)n(C1CCOCC1)c(=O)n2C [AZD7648] (first compound max 1 µM, 7x7, partner max 10 µM), for which the Bliss excess in assay [1] stood at 0.126; in assay [2], 0.0909; in assay [3], 0.0332; in assay [4] it was 0.0233; in assay [5], 0.0855; in assay [6] it was 0.0221.

In the case of `COc1cccc(OCCCN)c1-c1cc(Nc2cnc(C#N)cn2)n[nH]1` [Prexasertib] + C=CCn1c(=O)c2cnc(Nc3ccc(N4CCN(C)CC4)cc3)nc2n1-c1cccc(C(C)(C)O)n1 [AZD1775] (first compound max 1 µM, partner max 1 µM), the Bliss excess is 0.084 in assay [1]; 0.05 in assay [2]; -0.0943 in assay [3]; 0.0418 in assay [4]; 0.0829 in assay [5]; 0.0569 in assay [6].

For `COc1cccc(OCCCN)c1-c1cc(Nc2cnc(C#N)cn2)n[nH]1` [Prexasertib] + CCc1c2c(nc3ccc(O)cc13)-c1cc3c(c(=O)n1C2)COC(=O)[C@]3(O)CC [SN-38] (first compound max 1 µM, 7x7, partner max 0.3 µM), the Bliss excess in assay [1] is -0.0233; in assay [2], 0.0026; in assay [3], -0.0584; in assay [4], -0.0201; in assay [5], 0.0756; in assay [6] it was -0.0125.

In the case of `COc1cccc(OCCCN)c1-c1cc(Nc2cnc(C#N)cn2)n[nH]1` [Prexasertib] + CN(C)CCCOc1ccc(-c2ccc3ncc4c(c3c2)n(C2CCOCC2)c(=O)n4C)cn1 [AZD0156] (first compound max 1 µM, 7x7, partner max 1 µM), the Bliss excess was -0.0256 in assay [1]; -0.0196 in assay [2]; -0.0649 in assay [3]; 0.0113 in assay [4]; -0.0009 in assay [5]; 0.0204 in assay [6].

For the molecule `COc1cccc(OCCCN)c1-c1cc(Nc2cnc(C#N)cn2)n[nH]1` [Prexasertib] + C[C@@H]1COCCN1C2=NC(=NC(=C2)C3(CC3)[S@](=N)(=O)C)C4=C5C=CNC5=NC=C4 [AZD6738] (first compound max 1 µM, 7x7, partner max 10 µM), the Bliss excess in assay [1] is -0.0333; in assay [2] it was -0.0067; in assay [3] it was -0.0199; in assay [4], -0.0228; in assay [5], 0.0078; in assay [6], -0.0663.

With `COc1cccc(OCCCN)c1-c1cc(Nc2cnc(C#N)cn2)n[nH]1` [Prexasertib] + Cc1cc2ncnn2cc1Nc1ncc2c(n1)n(C1CCOCC1)c(=O)n2C [AZD7648] (first compound max 1 µM, 7x7, partner max 10 µM), the Bliss excess in assay [1] is -0.0383; in assay [2] it was 0.008; in assay [3], -0.046; in assay [4], -0.0006; in assay [5], -0.008; in assay [6], -0.0341.

With `COc1cccc(OCCCN)c1-c1cc(Nc2cnc(C#N)cn2)n[nH]1` [Prexasertib] + O=C(c1cc(Cc2n[nH]c(=O)c3ccccc23)ccc1F)N1CCN(C(=O)C2CC2)CC1 [Olaparib] (first compound max 1 µM, 7x7, partner max 10 µM), the Bliss excess in assay [1] was 0.0354; in assay [2], 0.0127; in assay [3] it was -0.0391; in assay [4], -0.0569; in assay [5], 0.003; in assay [6], -0.0628.

For the molecule `COc1cc2c(cc1OCCCCCOc1cc3c(cc1OC)C(=O)N1C=C(C)C[C@H]1C=N3)N=C[C@@H]1CC(C)=CN1C2=O` [SG3199] + O=C(c1cc(Cc2n[nH]c(=O)c3ccccc23)ccc1F)N1CCN(C(=O)C2CC2)CC1 [Olaparib] (first compound max 0.001 µM, 7x7, partner max 10 µM), the Bliss excess in assay [1] was -0.0009; in assay [2], -0.0067; in assay [3], -0.0387; in assay [4], -0.0358; in assay [5], -0.0372; in assay [6], -0.047.

Consider `CCc1c2c(nc3ccc(O)cc13)-c1cc3c(c(=O)n1C2)COC(=O)[C@]3(O)CC` [SN-38] + CN(C)CCCOc1ccc(-c2ccc3ncc4c(c3c2)n(C2CCOCC2)c(=O)n4C)cn1 [AZD0156] (first compound max 0.3 µM, 7x7, partner max 1 µM), for which the Bliss excess is -0.0007 in assay [1]; 0.0344 in assay [2]; -0.079 in assay [3]; 0.0639 in assay [4]; 0.121 in assay [5]; 0.0104 in assay [6].

As to `CC(=O)Nc1cccc(-n2c(=O)n(C3CC3)c(=O)c3c(Nc4ccc(I)cc4F)n(C)c(=O)c(C)c32)c1` [Trametinib] + Cc1nc(-c2cn3c(n2)-c2ccc(-c4cnn(C(C)(C)C(N)=O)c4)cc2OCC3)n(C(C)C)n1 [Taselisib] (first compound max 1 µM, 7x7, partner max 10 µM), the Bliss excess in assay [1] stood at 0.213; in assay [2], 0.184; in assay [3], 0.0881; in assay [4], 0.164; in assay [5] it was 0.0967; in assay [6] it was 0.165.

On to `CC1(C)CCC(CN2CCN(c3ccc(C(=O)NS(=O)(=O)c4ccc(NCC5CCOCC5)c([N+](=O)[O-])c4)c(Oc4cnc5[nH]ccc5c4)c3)CC2)=C(c2ccc(Cl)cc2)C1` [Venetoclax] + C1CN(CCC1(C(=O)N[C@@H](CCO)C2=CC=C(C=C2)Cl)N)C3=NC=NC4=C3C=CN4 [Capivasertib] (first compound max 1 µM, 7x7, partner max 3 µM), for which the Bliss excess in assay [1] is -0.0382; in assay [2], -0.0104; in assay [3] it was -0.0739; in assay [4], -0.0275; in assay [5], -0.0257; in assay [6], 0.0534.

With `CC1(C)CCC(CN2CCN(c3ccc(C(=O)NS(=O)(=O)c4ccc(NCC5CCOCC5)c([N+](=O)[O-])c4)c(Oc4cnc5[nH]ccc5c4)c3)CC2)=C(c2ccc(Cl)cc2)C1` [Venetoclax] + C=CCn1c(=O)c2cnc(Nc3ccc(N4CCN(C)CC4)cc3)nc2n1-c1cccc(C(C)(C)O)n1 [AZD1775] (first compound max 1 µM, partner max 1 µM), the Bliss excess in assay [1] was -0.0282; in assay [2] it was 0.0776; in assay [3] it was 0.0035; in assay [4], -0.0515; in assay [5] it was -0.029; in assay [6] it was 0.0966.

These data come from the supplement of paper PMC11061612.
